# Experimental data taken from patent US5494907A, “11-β substituted-19-nor steroids” (Roussel UCLAF, priority 1993, dated 1996).
# Biological target: T1, AR (androgen receptor of the prostate of a rat) (Rattus norvegicus, UniProt P15207)
# T1 construct: using either the natural hormonal receptor of a rat (AR); from tissue; host or cells: prostate of castrated male Sprague Dawley rats, high-speed supernatant
# T1 sequence (P15207 1-902): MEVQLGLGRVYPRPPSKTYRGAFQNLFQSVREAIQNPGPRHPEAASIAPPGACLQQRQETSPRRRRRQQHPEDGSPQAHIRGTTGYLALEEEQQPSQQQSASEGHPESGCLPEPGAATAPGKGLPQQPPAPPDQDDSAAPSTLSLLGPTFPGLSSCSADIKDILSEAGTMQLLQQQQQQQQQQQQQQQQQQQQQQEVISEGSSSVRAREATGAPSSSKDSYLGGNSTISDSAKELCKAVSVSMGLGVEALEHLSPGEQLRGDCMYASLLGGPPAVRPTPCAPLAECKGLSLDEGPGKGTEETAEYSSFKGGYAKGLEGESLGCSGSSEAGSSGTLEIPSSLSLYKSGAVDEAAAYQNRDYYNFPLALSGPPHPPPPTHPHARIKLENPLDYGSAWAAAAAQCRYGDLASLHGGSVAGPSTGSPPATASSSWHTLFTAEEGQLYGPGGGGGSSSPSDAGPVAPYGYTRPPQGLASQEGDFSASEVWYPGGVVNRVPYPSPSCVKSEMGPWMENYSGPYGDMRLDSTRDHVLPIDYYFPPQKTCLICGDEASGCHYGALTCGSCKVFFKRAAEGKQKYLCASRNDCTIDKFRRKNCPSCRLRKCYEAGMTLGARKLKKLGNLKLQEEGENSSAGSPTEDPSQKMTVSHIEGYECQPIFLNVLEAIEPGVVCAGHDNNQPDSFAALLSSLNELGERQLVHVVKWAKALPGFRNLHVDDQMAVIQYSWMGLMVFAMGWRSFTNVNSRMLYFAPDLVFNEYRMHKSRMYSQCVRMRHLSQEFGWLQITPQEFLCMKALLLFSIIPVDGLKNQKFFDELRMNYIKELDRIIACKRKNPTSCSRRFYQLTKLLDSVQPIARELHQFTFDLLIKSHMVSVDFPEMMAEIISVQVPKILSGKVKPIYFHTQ
# Assay: Relative bond affinity (RBA) on androgen receptor of the prostate of a rat, displacement of tritiated testosterone
# Assay type: binding
# Conditions: Testosterone = 100; 0° C., 24 hours
# Method: 1--Activity on the hormonal receptors using either the natural hormonal receptor of a rat (AR), or the recombinant human receptor (PR, GR and ER).
# Androgen receptor of the prostate of a rat
# Male Sprague Dawley EOPS rats weighing 180 to 200 g were castrated and 24 hours after the castration, the animals were sacrificed. The prostates were removed, weighed and homogenized at 0° C. using a Potter teflon-glass in a TS buffered solution (10 mM Tris, 0.25 M saccharose, 2 mMDTT, 20 mM MoNa, 0.1 mM PMSF, pH 7.4) (1 g of tissue per 8 ml of TS). The homogenate was centrifuged (209,000 g for 30 minutes) at 0° C. Aliquots of the supernatant were incubated at 0° C. for 24 hours with a constant concentration (T) of tritiated testosterone in the presence of increasing concentrations, either of unlabelled testosterone (0 to 1000×10^-9 M), or of the product under test (1 to 25000×10^-9 M). The concentration of bound tritiated testosterone (B) was measured in each incubate by the technique of adsorption with carbon dextran.
# Calculation of the relative bond affinity (RBA).
# The following 2 curves were traced: percentage of bound tritiated hormone B/BO as a function of the logarithm of the concentration of unlabelled reference hormone or as a function of the logarithm of the concentration of the unlabelled product under test.
# The straight line of the following equation was determined:
# BO=Concentration of bound tritiated hormone in the absence of any unlabelled product,
# B=Concentration of bound tritiated hormone in the presence of a concentration X of unlabelled product,
# B min=Concentration of bound tritiated hormone in the presence of a large excess of cold reference hormone (500 nM). The intersections of the straight line I50 and the curves allowed the evaluation of the concentrations of unlabelled reference hormone (CH) and of the unlabelled product under test (CX) which inhibited by 50% the specific binding of the tritiated hormone on the receptor.
# The relative bond affinity (RBA) of the product under test was determined by the equation: […]
row,SMILES,RBA AR
1,"CN(CC(F)(F)C(F)(F)C(F)(F)F)S(=O)(=O)CCCCCOc1ccc([C@H]2C[C@]3(C)[C@@H](O)CC[C@H]3[C@@H]3CCc4cc(O)ccc4[C@H]32)cc1 [Example 8, 5-[4-(Δ1,3,5(10)-estratrien-3,17β-diol-11βyl)-Phenoxy]-N-(2,2,3,3,4,4,4-heptafluorobutyl)-N-methyl-pentanesulfonamide]",1.5
2,"CCCCN(C)S(=O)(=O)CCCCCOc1ccc([C@H]2C[C@]3(C)[C@@H](O)CC[C@H]3[C@@H]3CCc4cc(O)ccc4[C@H]32)cc1 [Example 7, N-butyl-5-[4-(Δ1,3,5(10)-estratrien-3,17β-diol-11β-yl)phenoxy]-N-methyl-pentanesulfonamide]",2.5
3,"CCCCNS(=O)(=O)CCCCCOc1ccc([C@H]2C[C@]3(C)[C@@H](O)CC[C@H]3[C@@H]3CCc4cc(O)ccc4[C@H]32)cc1 [Example 2, N-butyl-5-[4-(Δ1,3,5(10)-estratrien-3,17β-diol-11β-yl)phenoxy]-pentanesulfonamide]",3
